This note sets out measurements from ChEMBL document CHEMBL3779853, “Target β-catenin/CD44/Nanog axis in colon cancer cells by certain N'-(2-oxoindolin-3-ylidene)-2-(benzyloxy)benzohydrazides” (Bioorg Med Chem Lett, 2016).

Molecules are shown by their SMILES. pIC50: −log10 of the molar value. Activity calls are given as the source filed them. The rule behind the calls is not given here.

Experiment [1] concerns LoVo. Kind of experiment: Cytotoxicity against high CD44 expressing human LoVo cells after 48 hrs by WST-1 assay. Type of experiment: functional, cell-based. On the technique in general: Formazan colour is commonly taken as a measure of viable cells.
The test system of a further experiment is HT-29. Put plainly: Cytotoxicity against low CD44 expressing human HT-29 cells after 48 hrs by WST-1 assay. The following applies: for pIC50: Homo sapiens, HT-29, 48 h, read-out: IC50; for IC50: ht-29. The class given is functional, cell-based.
In the next experiment the target is T1, TCF4-CTNNB1 complex (Homo sapiens, UniProt P35222+Q9NQB0).
T1 sequence (P35222 whole entry): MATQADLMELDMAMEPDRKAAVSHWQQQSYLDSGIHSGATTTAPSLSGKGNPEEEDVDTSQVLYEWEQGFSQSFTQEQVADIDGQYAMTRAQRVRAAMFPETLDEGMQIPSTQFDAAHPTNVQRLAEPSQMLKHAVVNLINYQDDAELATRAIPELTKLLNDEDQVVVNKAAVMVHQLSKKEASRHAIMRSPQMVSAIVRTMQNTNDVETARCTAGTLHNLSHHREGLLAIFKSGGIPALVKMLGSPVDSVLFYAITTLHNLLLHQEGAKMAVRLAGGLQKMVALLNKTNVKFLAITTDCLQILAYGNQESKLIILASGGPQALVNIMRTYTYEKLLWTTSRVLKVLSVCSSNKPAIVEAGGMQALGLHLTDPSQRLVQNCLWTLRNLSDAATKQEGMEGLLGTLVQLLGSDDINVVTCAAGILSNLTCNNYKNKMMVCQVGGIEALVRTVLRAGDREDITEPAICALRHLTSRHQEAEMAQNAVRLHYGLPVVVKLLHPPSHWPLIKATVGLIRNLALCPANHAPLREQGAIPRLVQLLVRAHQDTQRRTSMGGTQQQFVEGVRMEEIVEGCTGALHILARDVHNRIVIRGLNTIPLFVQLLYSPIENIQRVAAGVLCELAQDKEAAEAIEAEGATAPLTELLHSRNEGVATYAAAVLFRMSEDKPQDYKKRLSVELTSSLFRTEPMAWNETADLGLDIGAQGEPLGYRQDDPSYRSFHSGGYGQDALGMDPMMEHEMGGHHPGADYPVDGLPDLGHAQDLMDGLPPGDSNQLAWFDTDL
T1 sequence (P15884 whole entry): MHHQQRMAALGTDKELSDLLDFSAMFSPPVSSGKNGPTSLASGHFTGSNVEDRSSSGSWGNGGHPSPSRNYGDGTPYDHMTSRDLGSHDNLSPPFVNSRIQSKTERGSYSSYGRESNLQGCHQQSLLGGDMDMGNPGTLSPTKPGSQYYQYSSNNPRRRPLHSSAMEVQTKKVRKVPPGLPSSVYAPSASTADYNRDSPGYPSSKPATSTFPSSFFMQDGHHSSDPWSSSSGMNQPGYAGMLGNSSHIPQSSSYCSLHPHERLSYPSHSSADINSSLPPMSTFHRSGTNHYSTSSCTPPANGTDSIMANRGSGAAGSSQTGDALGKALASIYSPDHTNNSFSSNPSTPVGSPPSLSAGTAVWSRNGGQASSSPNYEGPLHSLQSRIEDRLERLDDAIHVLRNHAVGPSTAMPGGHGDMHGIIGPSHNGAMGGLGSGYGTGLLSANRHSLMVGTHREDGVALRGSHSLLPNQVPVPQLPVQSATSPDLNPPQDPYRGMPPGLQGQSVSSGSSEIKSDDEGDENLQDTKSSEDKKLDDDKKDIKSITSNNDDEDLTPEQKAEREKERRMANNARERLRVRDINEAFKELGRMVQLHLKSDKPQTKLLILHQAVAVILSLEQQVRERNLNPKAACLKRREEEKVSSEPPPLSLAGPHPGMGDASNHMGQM
Kind of experiment: Inhibition of human GST tagged Tcf4/beta catenin interaction after 2 hrs using fluorescent AP Attophos substrate by ELISA analysis. The class given is protein-complex assay. (In an ELISA, binding on a coated surface is turned into a signal by an enzyme label.)

Experiment [2] in a line: Cell cycle arrest in low CD44 expressing human […] cells assessed as accumulation at S phase at 5 to 10 uM. Type of experiment: functional, cell-based.
Experiment [3] can be described thus: Inhibition of Wnt/beta catenin pathway (unknown origin) in human LoVo cells transfected with TCF/LEF reporter plasmid assessed as GFP expression at 5 uM after 48 hrs by flow cytometric analysis (reference value: 3.7%). On the set-up: scale not given: the % may be the effect or the level left. Type of experiment: cell-based. Background: A flow cytometer gives signals particle by particle.

Experiment [4] in a line: Cell cycle arrest in low CD44 expressing human […] cells assessed as accumulation at M phase at 5 to 10 uM. Type of experiment: functional, cell-based.
Experiment [5] in a line: Cell cycle arrest in high CD44 expressing human […] cells assessed as accumulation at M phase at 5 to 10 uM. The class given is functional, cell-based.
The nature of experiment [6]: Inhibition of Wnt/beta catenin pathway (unknown origin) in human LoVo cells transfected with TCF/LEF reporter plasmid assessed as GFP expression at 10 uM after 48 hrs by flow cytometric analysis (reference value: 3.7%). Type of experiment: cell-based. Further details: scale not given: the % may be the effect or the level left.
The subject of experiment [7] is LoVo. Put plainly: Downregulation of Oct-4 expression in human LoVo cells at 10 uM after 48 hrs by RT-PCR analysis. Type of experiment: functional, cell-based.
The nature of experiment [8]: Cell cycle arrest in low CD44 expressing human […] cells assessed as accumulation at G2 phase at 5 to 10 uM. The class given is functional, cell-based.
A short description of experiment [9]: Inhibition of Wnt/beta catenin pathway (unknown origin) in human LoVo cells transfected with TCF/LEF reporter plasmid assessed as GFP expression at 2.5 uM after 48 hrs by flow cytometric analysis (reference value: 3.7%). The class given is cell-based. Further details: scale not given: the % may be the effect or the level left.
The nature of experiment [10]: Cell cycle arrest in high CD44 expressing human […] cells assessed as accumulation at G2 phase at 5 to 10 uM. The class given is functional, cell-based.
A short description of experiment [11]: Inhibition of Wnt/beta catenin pathway assessed as downregulation of CD44-mediated Nanog expression in human LoVo cells at 2.5 to 10 uM after 48 hrs by RT-PCR analysis. The class given is cell-based.
Experiment [12] concerns LoVo. Put plainly: Downregulation of Sox2 expression in human LoVo cells at 10 uM after 48 hrs by RT-PCR analysis. The class given is functional, cell-based.
A short description of experiment [13]: Cell cycle arrest in high CD44 expressing human […] cells assessed as accumulation at S phase at 5 to 10 uM. Type of experiment: functional, cell-based.

As usually defined, the pIC50 is the negative decadic logarithm of the IC50, by convention in mol/L. Take `CCCCN(CCCC)CN1C(=O)/C(=N\NC(=O)c2ccccc2OCc2ccccc2)c2ccccc21`: the figures for the pIC50 in the experiment with LoVo [1] and with HT-29 were 4.57 and 3.69, respectively.

In turn, `COC(=O)c1c(C)cc2c(c1O)[C@@]1(O)C(=O)c3cc4c(c(O)c3C(=O)[C@]1(OC)[C@H](O)C2)C(=O)C=C(NC1O[C@H](C)[C@@H](OC)[C@H](O)[C@@H]1OC)C4=O` (some centres undefined) showed a pIC50 on TCF4-CTNNB1 complex of 6.19.

On to `CN(Cc1ccccc1)CN1C(=O)/C(=N\NC(=O)c2ccccc2OCc2ccccc2)c2ccccc21`, for which the outcome (in [2]; in [4]; in the experiment on LoVo [7]; in [8]; in the experiment with LoVo [12]) was inactive. Also, the Activity in experiment [3] was 2%; in experiment [6], 1.7%; in [9] it was 2.2%; in experiment [11], “Dose-dependent effect”. Further, the outcome in experiment [5], in [10] and in [13] was Active. In the experiment on LoVo [1], this compound had a pIC50 of 4.60. In the experiment with HT-29, the IC50 result was “Not Active”.

On to `CN(CCO)CN1C(=O)/C(=N\NC(=O)c2ccccc2OCc2ccccc2)c2ccccc21`, for which, in the experiment with LoVo [1], the negative-log IC50 (pIC50) was 4.65. Besides, the IC50 result with HT-29 is given as “Not Active”.

For the compound `CCN(CC)CN1C(=O)/C(=N\NC(=O)c2ccccc2OCc2ccccc2)c2ccccc21`, the results for the pIC50 in the experiment with LoVo [1] and in the experiment on HT-29 were 4.83 and 4.07, respectively.

In the experiment with LoVo [1], `O=C(N/N=C1\C(=O)N(CN2CCOCC2)c2ccccc21)c1ccccc1OCc1ccccc1` had a pIC50 of 4.79. Further, the IC50 entry in the experiment with HT-29 is given as “Not Active”.

Compound `COc1c(CC(C)OC(=O)Oc2ccc(O)cc2)c2c3c(CC(C)OC(=O)c4ccccc4)c(OC)c(=O)c4c(O)cc(OC)c(c5c(OC)cc(O)c(c1=O)c52)c43` (centres undefined) showed a pIC50 against TCF4-CTNNB1 complex of 5.49.

Take `CN(C)CN1C(=O)/C(=N\NC(=O)c2ccccc2OCc2ccccc2)c2ccccc21`: the pIC50 in the experiment with LoVo [1] was 4.89; in the experiment on HT-29 it was 4.31.

For the compound `CCCN(CCC)CN1C(=O)/C(=N\NC(=O)c2ccccc2OCc2ccccc2)c2ccccc21`, the figures for the pIC50 with LoVo [1] and in the experiment with HT-29 were 4.70 and 4.02, respectively.

In turn, `O=C(N/N=C1\C(=O)N(CN2CCCCC2)c2ccccc21)c1ccccc1OCc1ccccc1` gave a pIC50 with LoVo [1] of 4.65. The IC50 entry with HT-29 is listed as “Not Active”.

In turn, `CCCC(=O)c1cc2c(c(O)c1C)C(=O)C(=O)c1c(O)cccc1-2` had a negative-log IC50 (pIC50) at TCF4-CTNNB1 complex of 5.62.

Consider `COc1c(CC(C)OC(=O)c2c(C)cc(O)cc2O)c2c3c(CC(C)OC(=O)c4c(C)cc(O)cc4O)c(OC)c(=O)c4c(O)cc(OC)c(c5c(OC)cc(O)c(c1=O)c52)c43` (centres undefined), for which the negative logarithm of the IC50 (pIC50) on TCF4-CTNNB1 complex is 5.39.

As for `CN(Cc1ccccc1)CN1C(=O)/C(=N\NC(=O)c2ccccc2OCc2ccc(Cl)cc2)c2ccccc21`, the pIC50 with LoVo [1] was 4.76. Besides, in the experiment on HT-29, the IC50 result is listed as “Not Active”.
